This is an account of results in BindingDB's records for patent US20250032625 (Merck Patent, 2025).

As a reminder, the Kd is the concentration at which binding is half-saturated.

This assay addresses T1, Transcriptional enhancer factor TEF-1 [209-426] (UniProt P28347).
T1 construct: 209-426
As to the kind of experiment: Surface Plasmon Resonance (SPR) Assay. The protocol: The kinetic and affinity parameters of protein-exemplary compound interactions were evaluated by SPR. hsTEAD1 (209-426) was immobilized onto a CM7 (Series S) sensor chip via the standard amine coupling procedure, at 15° C. Prior to immobilization, the carboxymethylated surface of the chip was activated with 400 mM 1-ethyl-3-(3-dimethylaminopropyl)-carbodiimide and 100 mM N-hydroxysuccinimide for 10 min. hsTEAD1 (209-426) was diluted to 11 μg/mL in 10 mM Bis-Tris at pH 6.5 and immobilized on the activated surface chip for 8 and 10 min, in order to reach 6000 to 9000 response units (RU). The remaining activated carboxymethylated groups were blocked with a 7 min injection of 1 M ethanolamine pH 8.5 after which the surface chip was washed with 0.5% (w/v) sodium dodecyl sulphate and 50 mM glycine. HBS-N, which consists of 10 mM HEPES pH 7.4 and 150 mM NaCl, was used as the background buffer during immobilization. Exemplary compounds were prediluted in DMSO, diluted 1:50 in running buffer (20 mM Tris pH 7.4, 150 mM NaCl, 1 mM DTT, 5 mM MgCl2, 0.1 mM EGTA, 0.05% CHAPS) and injected at ten different concentrations using two-fold dilution series, from 100 μM to 0.2 μM. A DMSO solvent correction (1%-3%) was performed to account for variations in bulk signal and to achieve high-quality data. […]

T1 sequence (P28347 209-426): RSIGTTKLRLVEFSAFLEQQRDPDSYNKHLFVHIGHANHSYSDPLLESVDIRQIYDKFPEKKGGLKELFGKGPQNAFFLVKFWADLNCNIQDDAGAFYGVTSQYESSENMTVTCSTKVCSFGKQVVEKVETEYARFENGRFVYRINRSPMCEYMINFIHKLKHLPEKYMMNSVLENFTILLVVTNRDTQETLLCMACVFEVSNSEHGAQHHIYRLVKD

With `Cn1cc2c3cc(C(=O)NCCOCCOCCOCCOCCOc4cccc5c4C(=O)N(C4CCC(=O)NC4=O)C5=O)ccc3n(-c3ccc(C(F)(F)F)cc3)c2n1` (stereo unspecified) [US20250032625, Compound 16], the dissociation constant (Kd) turned out to be 3.01 µM.
